Experimental data taken from the C3SDB collision cross section collection.

Conditions: [M+H]+; instrument: DT; stepped-field

| Compound | collision cross section (N2) |
| --- | --- |
| Cc1ccc2c(c1)[C@H](Nc1nc(N)nc(C(C)F)n1)[C@@H](C)C2 (stereo not given in full) [Indaziflam] | 169.27 Å² |
| NC(=O)c1ccc[n+]([C@@H]2O[C@H](COP(=O)([O-])O)[C@@H](O)[C@H]2O)c1 [Nicotinamide Mononucleotide] | 167.13 Å² |
| COc1ccc2c(c1)c(CC(=O)O)c(C)n2C(=O)c1ccc(Cl)cc1 [Indomethacin] | 183.55 Å² |
| NC(=O)[C@@H]1CCCN1C(=O)[C@H](Cc1cnc[nH]1)NC(=O)[C@@H]1CCC(=O)N1 [Thyrotropin-releasing hormone] | 181 Å² |
| N[C@@H](CCOC(=O)CCC(=O)O)C(=O)O [O-Succinyl-L-homoserine] | 147.46 Å² |
| O=C(O)Cc1c[nH]c2ccccc12 [Indoleacetic Acid] | 138.11 Å² |
| OCCNCCO [Diethanolamine] | 123.33 Å² |
| O=C(O)/C=C/c1cnc[nH]1 [Urocanate] | 137.54 Å² |
| C=C(C)[C@H]1Cc2c(ccc3c2O[C@@H]2COc4cc(OC)c(OC)cc4[C@@H]2C3=O)O1 [Rotenone] | 199.63 Å² |
| O=C(O)c1cc(=O)c2ccccc2[nH]1 [Kynurenic Acid] | 140.99 Å² |
| CC(C)=CCC/C(C)=C/CC/C(C)=C/CC/C(C)=C/CC1=C(C)C(=O)c2ccccc2C1=O [Vitamin K2] | 198.66 Å² |
| O=C1c2ccccc2-c2cccc3cccc1c23 [Benzanthrone] | 145.71 Å² |
| C[Se]CC[C@H](N)C(=O)O [L-Selenomethionine] | 137.67 Å² |
| CC1=CC(=O)CC(C)(C)C1(O)/C=C/C(C)=C\C(=O)O (stereo not given) [Abscisic Acid] | 160.56 Å² |
| CC(C)[C@H](N)C(=O)O [L-Valine] | 134.28 Å² |
| O=c1c2cc(O)c(O)cc2oc2cc(O)c([C@@H]3O[C@H](CO)[C@@H](O)[C@H](O)[C@H]3O)c(O)c12 [Mangiferin] | 196.62 Å² |
| O=c1cc(-c2ccc(O)c(-c3c(O)cc(O)c4c(=O)cc(-c5ccc(O)cc5)oc34)c2)oc2cc(O)cc(O)c12 [Amentoflavone] | 230.16 Å² |
| CN(C)[C@@H]1C(=O)C(C(N)=O)=C(O)[C@@]2(O)C(=O)C3=C(O)c4c(O)cccc4[C@@](C)(O)[C@H]3C[C@@H]12 [Tetracycline] | 198.48 Å² |
| O=C(O)Cc1cnc[nH]1 [Imidazole-4-acetic Acid] | 128.23 Å² |
| C=CCc1ccc(OC)c(OC)c1 [Methyleugenol] | 138.94 Å² |

Further lines, results first:

| collision cross section (N2) | Compound |
| --- | --- |
| 188.88 Å² | C[C@]12CCC(=O)C=C1CC[C@@H]1[C@@H]2[C@@H](O)C[C@@]2(C)[C@H]1CC[C@]2(O)C(=O)CO [Cortisol] |
| 135.59 Å² | N[C@H]1C(O)O[C@H](CO)[C@@H](O)[C@@H]1O (stereo partly drawn) [D-Glucosamine] |
| 249.8 Å² | CC(=O)SCCNC(=O)CCNC(=O)[C@H](O)C(C)(C)COP(=O)(O)OP(=O)(O)OC[C@H]1O[C@@H](n2cnc3c(N)ncnc32)[C@H](O)[C@@H]1OP(=O)(O)O [Acetyl coenzyme A] |
| 187.9 Å² | COc1ccc(-c2cc(=O)c3c(OC)c(OC)c(OC)c(OC)c3o2)cc1 [Tangeritin] |
| 138.85 Å² | O=C(O)c1cc(=O)[nH]c(=O)[nH]1 [Orotic Acid] |
| 176.54 Å² | COc1ccc([C@@H]2CC(=O)c3c(O)cc(O)cc3O2)cc1O [Hesperetin] |
| 236.8 Å² | CCCCCCCCCCCCCCCC/C=C\OC[C@@H](O)COP(=O)([O-])OCC[N+](C)(C)C [LPC(p18:0)] |
| 129.79 Å² | NCCC[C@H](N)C(=O)O [L-Ornithine] |
| 192.43 Å² | Cc1cc2nc3c(=O)[nH]c(=O)nc-3n(C[C@H](O)[C@H](O)[C@H](O)CO)c2cc1C [Riboflavin] |
| 201.48 Å² | Cc1cc2nc3c(=O)[nH]c(=O)nc-3n(C[C@H](O)[C@H](O)[C@H](O)COP(=O)(O)O)c2cc1C [Riboflavin 5'-Monophosphate] |
| 130.4 Å² | C[N+](C)(C)CCCC(=O)[O-] [Deoxycarnitine] |
| 155.67 Å² | CC(=O)N[C@H](Cc1c[nH]c2ccccc12)C(=O)O [N-Acetyl-D-tryptophan] |
| 157.23 Å² | O=c1c(-c2ccc(O)cc2)coc2cc(O)ccc12 [Daidzein] |
| 173.03 Å² | CSC[C@H]1O[C@@H](n2cnc3c(N)ncnc32)[C@H](O)[C@@H]1O [5'-Methylthioadenosine] |
| 125.2 Å² | Cc1cccc2ccccc12 [1-methylnaphthalene] |
| 134.33 Å² | Cn1cnc2[nH]c(N)nc(=O)c21 [7-Methylguanine] |
| 151.07 Å² | Nc1ccccc1C(=O)CC(N)C(=O)O (stereo not given) [Kynurenine] |
| 146.82 Å² | O=C(O)CNC(=O)c1ccccc1 [Hippuric Acid] |

Same assay, conditions: [M+Na]+; instrument: DT; stepped-field

| Compound | collision cross section (N2) |
| --- | --- |
| Cc1ccc2c(c1)[C@H](Nc1nc(N)nc(C(C)F)n1)[C@@H](C)C2 (stereo not given in full) [Indaziflam] | 174.6 Å² |
| CCCCC/C=C\C[C@@H](O)/C=C/C=C\C/C=C\CCCC(=O)O [12R-HETE] | 194.4 Å² |
| C[C@]12CC[C@@H](O)C[C@H]1CC[C@@H]1[C@@H]2[C@@H](O)C[C@@]2(C)[C@H]1CC[C@]2(O)[C@H](O)CO [B-Cortol] | 204.59 Å² |
| COc1ccc2c(c1)c(CC(=O)O)c(C)n2C(=O)c1ccc(Cl)cc1 [Indomethacin] | 195.98 Å² |
| NC(=O)[C@@H]1CCCN1C(=O)[C@H](Cc1cnc[nH]1)NC(=O)[C@@H]1CCC(=O)N1 [Thyrotropin-releasing hormone] | 184.12 Å² |
| OC1OC[C@H](O)[C@H](O)[C@H]1O (stereo partly drawn) [L-Arabinose] | 141.86 Å² |
| CCCCCCCC/C=C\CCCCCCCC(=O)OC[C@@H](O)COP(=O)([O-])OCC[N+](C)(C)C [LPC 18:1] | 237.34 Å² |
| N[C@@H](CCOC(=O)CCC(=O)O)C(=O)O [O-Succinyl-L-homoserine] | 147.22 Å² |
| CC(=O)OP(=O)(O)O [Acetyl Phosphate] | 125.44 Å² |
| CCCCC/C=C\C/C=C\C/C=C\C=C\[C@@H](O)CCCC(=O)O [5S-HETE] | 188.21 Å² |
| C=C(C)[C@H]1Cc2c(ccc3c2O[C@@H]2COc4cc(OC)c(OC)cc4[C@@H]2C3=O)O1 [Rotenone] | 213.17 Å² |
| O=C(O)c1cc(=O)c2ccccc2[nH]1 [Kynurenic Acid] | 154.12 Å² |
| O=C1O[C@H]([C@@H](O)CO)C(O)=C1O [L-Ascorbic Acid] | 146.11 Å² |
| O=P(O)(O)OC[C@H](O)CO [sn-Glycerol 3-phosphate] | 142.16 Å² |
| O=C(CO)[C@@H](O)[C@H](O)[C@H](O)COP(=O)(O)O [Fructose-6-phosphate] | 156.44 Å² |
| OC[C@H]1O[C@H](OC[C@H]2O[C@H](OC[C@H]3OC(O)[C@H](O)[C@@H](O)[C@@H]3O)[C@H](O)[C@@H](O)[C@@H]2O)[C@H](O)[C@@H](O)[C@@H]1O (stereo not given in full) [Isomaltotriose] | 210.83 Å² |
| CC1=CC(=O)CC(C)(C)C1(O)/C=C/C(C)=C\C(=O)O (stereo not given) [Abscisic Acid] | 176.18 Å² |
| COc1ccc(-c2coc3cc(O)ccc3c2=O)cc1 [Formononetin] | 176.14 Å² |
| OC[C@H]1O[C@@H](O[C@@H]2[C@@H](CO)O[C@](O)(CO)[C@H]2O)[C@H](O)[C@@H](O)[C@H]1O [Lactulose] | 180.1 Å² |
| CC(C)[C@H](N)C(=O)O [L-Valine] | 144.07 Å² |
| O=C(O)[C@@H](O)[C@@H](O)[C@@H](O)CO [L-Ribonic Acid] | 143.47 Å² |
| CN(C)[C@@H]1C(=O)C(C(N)=O)=C(O)[C@@]2(O)C(=O)C3=C(O)c4c(O)cccc4[C@@](C)(O)[C@H]3C[C@@H]12 [Tetracycline] | 212.5 Å² |
| NC(=O)NCCC(=O)O [3-Ureidopropionic Acid] | 135.8 Å² |
| CCCCCC(O)/C=C/C=C\CCCCCCCC(=O)O (stereo not given) [13-HODE] | 191.83 Å² |
| O=C(O)Cc1cnc[nH]1 [Imidazole-4-acetic Acid] | 148.03 Å² |
| C=CCc1ccc(OC)c(OC)c1 [Methyleugenol] | 160.36 Å² |
| CCCCC/C=C\C/C=C\CCCCCCCCCC(=O)O [Icosadienoic Acid] | 184.05 Å² |

Other lines, results leading:

| collision cross section (N2) | Compound |
| --- | --- |
| 213.91 Å² | C[C@]12CCC(=O)C=C1CC[C@@H]1[C@@H]2[C@@H](O)C[C@@]2(C)[C@H]1CC[C@]2(O)C(=O)CO [Cortisol] |
| 131.64 Å² | CCCC(=O)C(=O)O [2-Oxovaleric Acid] |
| 157.21 Å² | COc1c(Cl)ccc(Cl)c1C(=O)O [Dicamba] |
| 147.19 Å² | N[C@H]1C(O)O[C@H](CO)[C@@H](O)[C@@H]1O (stereo partly drawn) [D-Glucosamine] |
| 263.07 Å² | CC(=O)SCCNC(=O)CCNC(=O)[C@H](O)C(C)(C)COP(=O)(O)OP(=O)(O)OC[C@H]1O[C@@H](n2cnc3c(N)ncnc32)[C@H](O)[C@@H]1OP(=O)(O)O [Acetyl coenzyme A] |
| 208.15 Å² | COc1ccc(-c2cc(=O)c3c(OC)c(OC)c(OC)c(OC)c3o2)cc1 [Tangeritin] |
| 181.87 Å² | O=C(O)c1cc(=O)[nH]c(=O)[nH]1 [Orotic Acid] |
| 184.45 Å² | COc1ccc([C@@H]2CC(=O)c3c(O)cc(O)cc3O2)cc1O [Hesperetin] |
| 238.37 Å² | CCCCCCCCCCCCCCCC/C=C\OC[C@@H](O)COP(=O)([O-])OCC[N+](C)(C)C [LPC(p18:0)] |
| 199.4 Å² | Cc1cc2nc3c(=O)[nH]c(=O)nc-3n(C[C@H](O)[C@H](O)[C@H](O)CO)c2cc1C [Riboflavin] |
| 153.23 Å² | Nc1ccccc1S(=O)(=O)O [Aniline-2-sulfonic Acid] |
| 210.66 Å² | Cc1cc2nc3c(=O)[nH]c(=O)nc-3n(C[C@H](O)[C@H](O)[C@H](O)COP(=O)(O)O)c2cc1C [Riboflavin 5'-Monophosphate] |
| 239.53 Å² | CCCCCCCC/C=C\CCCCCCCC(=O)OC[C@@H](O)COP(=O)([O-])OCC[N+](C)(C)C [18:1 Lyso PC] |
| 162.74 Å² | CC(=O)N[C@H](Cc1c[nH]c2ccccc12)C(=O)O [N-Acetyl-D-tryptophan] |
| 133.58 Å² | O=C(O)/C=C/C(=O)O [Fumaric Acid] |
| 173.13 Å² | O=c1c(-c2ccc(O)cc2)coc2cc(O)ccc12 [Daidzein] |
| 176.54 Å² | CSC[C@H]1O[C@@H](n2cnc3c(N)ncnc32)[C@H](O)[C@@H]1O [5'-Methylthioadenosine] |
| 149.72 Å² | Cn1cnc2[nH]c(N)nc(=O)c21 [7-Methylguanine] |
| 154.06 Å² | O=C(O)CNC(=O)c1ccccc1 [Hippuric Acid] |

Same assay, conditions: [M]+; instrument: DT; stepped-field

| Compound | collision cross section (N2) |
| --- | --- |
| COc1cc(-c2[o+]c3cc(O)cc(O)c3cc2O)cc(OC)c1O [Malvidin] | 178.55 Å² |

Conditions: [M+H]+; instrument: DT; single field, calibrated with Agilent tune mix (Agilent)

| collision cross section (N2) | Compound |
| --- | --- |
| 221.1 Å² | CCCCCCCCCCCCCCCCCC(=O)O[C@H](CC(=O)[O-])C[N+](C)(C)C [Stearoylcarnitine] |
| 192.9 Å² | CC(=O)N[C@H]1[C@H](O[C@H]2[C@H](O)[C@@H](NC(C)=O)C(O)O[C@@H]2CO)O[C@H](CO)[C@@H](O)[C@@H]1O (stereo not given in full) [N,N'-Diacetylchitobiose] |
| 144 Å² | COc1ccc2[nH]cc(CC(=O)O)c2c1 [5-Methoxyindoleacetate] |

Same assay, conditions: [M+Na]+; instrument: DT; single field, calibrated with Agilent tune mix (Agilent)

| collision cross section (N2) | Compound |
| --- | --- |
| 157.5 Å² | O=P(O)(O)OC1O[C@H](CO)[C@@H](O)[C@H](O)[C@H]1O (stereo partly drawn) [a-D-Galactose 1-phosphate] |

Same assay, conditions: [M-H]-; instrument: DT; single field, calibrated with Agilent tune mix (Agilent)

| collision cross section (N2) | Compound |
| --- | --- |
| 145.32 Å² | O=P(O)(O)OC1O[C@H](CO)[C@@H](O)[C@H](O)[C@H]1O (stereo partly drawn) [a-D-Galactose 1-phosphate] |
